# Laboratory results reported in PubChem BioAssay AID1963841 (Molecular Pharmacology Branch, DTP, NCI, 2024).
# pIC50: −log10 of the molar value.
# System: 439559-082-T-J2-PDC spheroid viability
# Assay: Anticancer human tumor 439559-082-T-J2-PDC patient-derived colon adenocarcinoma cell line growth inhibition [POLQ]
# Conditions: spheroids with HUVEC and MSC; for pIC50: curve of first compound; for viability, T/C: stronger effect = lower value
# Summary of the method: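 Complex spheroid viability model combining PDC tumour cells with endothelial (HUVEC) and MSC stromal cells. Novobiocin, ART-558 or RP6685 were tested singly and in combination with standard and investigational anticancer drugs. Each was titrated in half-log steps from near clinical Cmax, or from 10 microM where Cmax was unknown.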
# [1] = second compound 0.0316 µM, first compound 0.00316 µM
# [2] = second compound 0.0316 µM, first compound 0.01 µM
# [3] = second compound 0.0316 µM, first compound 0.0316 µM
# [4] = second compound 0.0316 µM, first compound 0.1 µM
# [5] = second compound 0.0316 µM, first compound 0.316 µM
# [6] = second compound 0.0316 µM, first compound 1 µM
# [7] = second compound 0.1 µM, first compound 0.00316 µM
# [8] = second compound 0.1 µM, first compound 0.01 µM
# [9] = second compound 0.1 µM, first compound 0.0316 µM
# [10] = second compound 0.1 µM, first compound 0.1 µM
# [11] = second compound 0.1 µM, first compound 0.316 µM
# [12] = second compound 0.1 µM, first compound 1 µM
# [13] = second compound 0.316 µM, first compound 0.00316 µM
# [14] = second compound 0.316 µM, first compound 0.01 µM
# [15] = second compound 0.316 µM, first compound 0.0316 µM
# [16] = second compound 0.316 µM, first compound 0.1 µM
# [17] = second compound 0.316 µM, first compound 0.316 µM
# [18] = second compound 0.316 µM, first compound 1 µM
# [19] = second compound 1 µM, first compound 0.00316 µM
# [20] = second compound 1 µM, first compound 0.01 µM
# [21] = second compound 1 µM, first compound 0.0316 µM
# [22] = second compound 1 µM, first compound 0.1 µM
# [23] = second compound 1 µM, first compound 0.316 µM
# [24] = second compound 1 µM, first compound 1 µM
# [25] = second compound 3.16 µM, first compound 0.00316 µM
# [26] = second compound 3.16 µM, first compound 0.01 µM
# [27] = second compound 3.16 µM, first compound 0.0316 µM
# [28] = second compound 3.16 µM, first compound 0.1 µM
# [29] = second compound 3.16 µM, first compound 0.316 µM
# [30] = second compound 3.16 µM, first compound 1 µM
# [31] = second compound 10 µM, first compound 0.00316 µM
# [32] = second compound 10 µM, first compound 0.01 µM
# [33] = second compound 10 µM, first compound 0.0316 µM
# [34] = second compound 10 µM, first compound 0.1 µM
# [35] = second compound 10 µM, first compound 0.316 µM
# [36] = second compound 10 µM, first compound 1 µM
# [37] = second compound 0.0316 µM, first compound 3.16 µM
# [38] = second compound 0.0316 µM, first compound 10 µM
# [39] = second compound 0.1 µM, first compound 3.16 µM
# [40] = second compound 0.1 µM, first compound 10 µM
# [41] = second compound 0.316 µM, first compound 3.16 µM
# [42] = second compound 0.316 µM, first compound 10 µM
# [43] = second compound 1 µM, first compound 3.16 µM
# [44] = second compound 1 µM, first compound 10 µM
# [45] = second compound 3.16 µM, first compound 3.16 µM
# [46] = second compound 3.16 µM, first compound 10 µM
# [47] = second compound 10 µM, first compound 3.16 µM
# [48] = second compound 10 µM, first compound 10 µM
# 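Note: spheroids exposed to compounds for seven days before readout.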
# 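Throughout, for viability, T/C: 100% = DMSO vehicle control viability.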
smiles,measurement,setting,value
COc1cccc(OCCCN)c1-c1cc(Nc2cnc(C#N)cn2)n[nH]1 + Nc1ccc(C#CCN(C(=O)Cc2ncc(C(F)(F)F)cc2C(F)(F)F)c2ccc(F)cc2)nn1,pIC50,second compound 0.0316 µM,6.47
same,pIC50,second compound 0.1 µM,6.53
same,pIC50,second compound 0.316 µM,6.49
same,pIC50,second compound 1 µM,6.54
same,pIC50,second compound 3.16 µM,6.65
same,pIC50,second compound 10 µM,7.15
same,"viability, T/C",[1],105%
same,"viability, T/C",[2],95.1%
same,"viability, T/C",[3],82.2%
same,"viability, T/C",[4],68.4%
same,"viability, T/C",[5],58.2%
same,"viability, T/C",[6],23.1%
same,"viability, T/C",[7],104%
same,"viability, T/C",[8],99.3%
same,"viability, T/C",[9],79.9%
same,"viability, T/C",[10],66.7%
same,"viability, T/C",[11],53%
same,"viability, T/C",[12],22.8%
same,"viability, T/C",[13],101%
same,"viability, T/C",[14],97.6%
same,"viability, T/C",[15],85.4%
same,"viability, T/C",[16],69%
same,"viability, T/C",[17],51.6%
same,"viability, T/C",[18],24.8%
same,"viability, T/C",[19],106%
same,"viability, T/C",[20],105%
same,"viability, T/C",[21],76.8%
same,"viability, T/C",[22],70.6%
same,"viability, T/C",[23],50.6%
same,"viability, T/C",[24],22.4%
same,"viability, T/C",[25],106%
same,"viability, T/C",[26],95.6%
same,"viability, T/C",[27],83.2%
same,"viability, T/C",[28],67.7%
same,"viability, T/C",[29],41.6%
same,"viability, T/C",[30],20.4%
same,"viability, T/C",[31],107%
same,"viability, T/C",[32],96%
same,"viability, T/C",[33],69.3%
same,"viability, T/C",[34],42.4%
same,"viability, T/C",[35],23.8%
same,"viability, T/C",[36],20.7%
CC1COCCN1c1cc(-c2ccnn2C)c2ccnc(-c3ccn[nH]3)c2n1 (stereo not drawn) + Nc1ccc(C#CCN(C(=O)Cc2ncc(C(F)(F)F)cc2C(F)(F)F)c2ccc(F)cc2)nn1,pIC50,second compound 0.0316 µM,6.32
same,pIC50,second compound 0.1 µM,< 5.00
same,pIC50,second compound 0.316 µM,< 5.00
same,pIC50,second compound 1 µM,6.01
same,pIC50,second compound 3.16 µM,6.50
same,pIC50,second compound 10 µM,6.53
same,"viability, T/C",[3],105%
same,"viability, T/C",[4],82.9%
same,"viability, T/C",[5],50.7%
same,"viability, T/C",[6],41.2%
same,"viability, T/C",[37],57%
same,"viability, T/C",[38],49.1%
same,"viability, T/C",[9],105%
same,"viability, T/C",[10],97.1%
same,"viability, T/C",[11],57.5%
same,"viability, T/C",[12],48.9%
same,"viability, T/C",[39],55.8%
same,"viability, T/C",[40],50.3%
same,"viability, T/C",[15],105%
same,"viability, T/C",[16],89.5%
same,"viability, T/C",[17],52.9%
same,"viability, T/C",[18],49.9%
same,"viability, T/C",[41],57.1%
same,"viability, T/C",[42],52.3%
same,"viability, T/C",[21],108%
same,"viability, T/C",[22],84.7%
same,"viability, T/C",[23],60.1%
same,"viability, T/C",[24],42.4%
same,"viability, T/C",[43],56.8%
same,"viability, T/C",[44],46%
same,"viability, T/C",[27],111%
same,"viability, T/C",[28],78.1%
same,"viability, T/C",[29],50.1%
same,"viability, T/C",[30],43.1%
same,"viability, T/C",[45],52.2%
same,"viability, T/C",[46],47.9%
same,"viability, T/C",[33],93.3%
same,"viability, T/C",[34],74.3%
same,"viability, T/C",[35],47.4%
same,"viability, T/C",[36],48.7%
same,"viability, T/C",[47],54.2%
same,"viability, T/C",[48],42.8%
COc1cccc(OCCCN)c1-c1cc(Nc2cnc(C#N)cn2)n[nH]1 + COC1C(OC(N)=O)C(O)C(Oc2ccc3c(O)c(NC(=O)c4ccc(O)c(CC=C(C)C)c4)c(=O)oc3c2C)OC1(C)C,pIC50,second compound 0.0316 µM,6.85
same,pIC50,second compound 0.1 µM,6.80
same,pIC50,second compound 0.316 µM,6.84
same,pIC50,second compound 1 µM,6.96
same,pIC50,second compound 3.16 µM,6.88
same,pIC50,second compound 10 µM,6.89
same,"viability, T/C",[1],87%
same,"viability, T/C",[2],88.1%
same,"viability, T/C",[3],70.1%
same,"viability, T/C",[4],61.4%
same,"viability, T/C",[5],31.3%
same,"viability, T/C",[6],17.4%
same,"viability, T/C",[7],98.5%
same,"viability, T/C",[8],82%
same,"viability, T/C",[9],76.4%
same,"viability, T/C",[10],65.3%
same,"viability, T/C",[11],30.9%
same,"viability, T/C",[12],18.3%
same,"viability, T/C",[13],94.6%
same,"viability, T/C",[14],90.3%
same,"viability, T/C",[15],72.3%
same,"viability, T/C",[16],62%
same,"viability, T/C",[17],31.7%
same,"viability, T/C",[18],19.1%
same,"viability, T/C",[19],105%
same,"viability, T/C",[20],82.1%
same,"viability, T/C",[21],72.6%
same,"viability, T/C",[22],52.9%
same,"viability, T/C",[23],31.8%
same,"viability, T/C",[24],16.4%
same,"viability, T/C",[25],102%
same,"viability, T/C",[26],85.6%
same,"viability, T/C",[27],73.6%
same,"viability, T/C",[28],59.1%
same,"viability, T/C",[29],30.9%
same,"viability, T/C",[30],18.2%
same,"viability, T/C",[31],103%
same,"viability, T/C",[32],86.8%
same,"viability, T/C",[33],77%
same,"viability, T/C",[34],56.4%
same,"viability, T/C",[35],30.5%
same,"viability, T/C",[36],17.5%
COc1cccc2c1C(=O)c1c(O)c3c(c(O)c1C2=O)CC(O)(C(=O)CO)CC3OC1CC(N)C(O)C(C)O1 (stereo not drawn) + Nc1ccc(C#CCN(C(=O)Cc2ncc(C(F)(F)F)cc2C(F)(F)F)c2ccc(F)cc2)nn1,pIC50,second compound 0.0316 µM,< 5.00
same,pIC50,second compound 0.1 µM,< 5.00
same,pIC50,second compound 0.316 µM,< 5.00
same,pIC50,second compound 1 µM,< 5.00
same,pIC50,second compound 3.16 µM,< 5.00
same,pIC50,second compound 10 µM,5.15
same,"viability, T/C",[3],90.2%
same,"viability, T/C",[4],83.1%
same,"viability, T/C",[5],79.2%
same,"viability, T/C",[6],67.8%
same,"viability, T/C",[37],60.7%
same,"viability, T/C",[38],60.5%
same,"viability, T/C",[9],99.9%
same,"viability, T/C",[10],98.4%
same,"viability, T/C",[11],79.8%
same,"viability, T/C",[12],66.5%
same,"viability, T/C",[39],58.9%
same,"viability, T/C",[40],65.1%
same,"viability, T/C",[15],94.7%
same,"viability, T/C",[16],82.5%
same,"viability, T/C",[17],78.7%
same,"viability, T/C",[18],59.3%
same,"viability, T/C",[41],58.1%
same,"viability, T/C",[42],66.7%
same,"viability, T/C",[21],103%
same,"viability, T/C",[22],85.5%
same,"viability, T/C",[23],74.6%
same,"viability, T/C",[24],64%
same,"viability, T/C",[43],57.2%
same,"viability, T/C",[44],55.8%
same,"viability, T/C",[27],87.5%
same,"viability, T/C",[28],83.2%
same,"viability, T/C",[29],61.2%
same,"viability, T/C",[30],62.4%
same,"viability, T/C",[45],67.2%
same,"viability, T/C",[46],57.7%
same,"viability, T/C",[33],78.8%
same,"viability, T/C",[34],74.2%
same,"viability, T/C",[35],70.8%
same,"viability, T/C",[36],59.7%
same,"viability, T/C",[47],62.6%
same,"viability, T/C",[48],45.1%
